Assay results reported in publication PMC10485979, “CUDC-907, a dual PI3K/histone deacetylase inhibitor, increases meta-iodobenzylguanidine uptake (^123/131I-mIBG) in vitro and in vivo: a promising candidate for advancing theranostics in neuroendocrine tumors” (Journal of Translational Medicine, 2023).

B1: dopamine transporter (DAT) (Homo sapiens) (protein)
chain: MSKSKCSVGLMSSVVAPAKEPNAVGPKEVELILVKEQNGVQLTSSTLTNPRQSPVEAQDRETWGKKIDFLLSVIGFAVDLANVWRFPYLCYKNGGGAFLVPYLLFMVIAGMPLFYMELALGQFNREGAAGVWKICPILKGVGFTVILISLYVGFFYNVIIAWALHYLFSSFTTELPWIHCNNSWNSPNCSDAHPGDSSGDSSGLNDTFGTTPAAEYFERGVLHLHQSHGIDDLGPPRWQLTACLVLVIVLLYFSLWKGVKTSGKVVWITATMPYVVLTALLLRGVTLPGAIDGIRAYLSVDFYRLCEASVWIDAATQVCFSLGVGFGVLIAFSSYNKFTNNCYRDAIVTTSINSLTSFSSGFVVFSFLGYMAQKHSVPIGDVAKDGPGLIFIIYPEAIATLPLSSAWAVVFFIMLLTLGIDSAMGGMESVITGLIDEFQLLHRHRELFTLFIVLATFLLSLFCVTNGGIYVFTLLDHFAAGTSILFGVLIEAIGVAWFYGVGQFSDDIQQMTGQRPSLYWRLCWKLVSPCFLLFVVVVSIVTFRPPHYGAYIFPDWANALGWVIATSSMAMVPIYAAYKFCSLPGSFREKLAYAIAPEKDRELVDRGEVRQFTLRHWLKV

What was measured:
[1] = molecular target: T1, norepinephrine transporter (NET) (Homo sapiens, UniProt P23975); assay: inhibition of mIBG internalization in HEK-NET cells, LC-MS/MS quantification; assay type: cell-based
T1 construct: gene SLC6A2; human NET expressed in transfected HEK293 cells

[2] = substrate: N=C(N)NCc1cccc(I)c1; assay: cells, lysate or membranes

T1 sequence (P23975 whole entry): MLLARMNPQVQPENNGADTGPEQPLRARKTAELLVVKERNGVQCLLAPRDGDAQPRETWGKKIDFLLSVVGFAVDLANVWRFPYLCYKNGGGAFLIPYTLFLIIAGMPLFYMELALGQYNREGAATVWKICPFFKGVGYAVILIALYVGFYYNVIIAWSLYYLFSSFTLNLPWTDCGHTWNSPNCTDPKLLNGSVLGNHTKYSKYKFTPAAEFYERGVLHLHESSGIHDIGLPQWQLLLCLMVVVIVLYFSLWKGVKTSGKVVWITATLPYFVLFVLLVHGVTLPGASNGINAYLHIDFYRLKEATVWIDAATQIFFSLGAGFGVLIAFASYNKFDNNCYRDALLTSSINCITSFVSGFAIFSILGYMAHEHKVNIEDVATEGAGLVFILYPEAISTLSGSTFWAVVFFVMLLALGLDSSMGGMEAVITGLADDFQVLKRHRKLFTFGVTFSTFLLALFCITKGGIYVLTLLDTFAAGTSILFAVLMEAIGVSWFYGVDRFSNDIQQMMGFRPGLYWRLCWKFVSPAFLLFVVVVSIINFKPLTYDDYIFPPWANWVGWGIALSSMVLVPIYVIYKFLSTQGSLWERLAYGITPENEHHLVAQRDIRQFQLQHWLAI

Row | Molecule | IC50 [1] [µM] | Km [2] [µM]
1 | c1ccc(CCCN2CCN(CCOC(c3ccccc3)c3ccccc3)CC2)cc1 [GBR12935] | 3.61 | 
2 | B1 |  | 2.807
